Values after ≈ are worked out from the molar mass of the structure shown. A value given as a limit tells only on which side of the number the result lay.

For this series the following is noted: buffer; pH 7.4; 200.0 µM.
As a reminder, the kinetic solubility is solubility judged after dilution from a stock solution rather than from solid. Turning to `O=C1OC(c2ccc(F)cc2)=N/C1=C\c1ccc(Br)o1`, the kinetic solubility turned out to be 9.6 µg/mL (≈ 28.6 µM).

As to `CCCn1c(=O)c(C(=O)Nc2cccc(C)c2)c(O)c2ccccc21`, the solubility (kinetic) was less than 0.4 µg/mL.

`COc1cccc(NC(=O)N2CCCCCC2)c1` returned a kinetic solubility of more than 37.2 µg/mL.

`Cn1c(C(=O)N[C@@H](Cc2ccccc2)C(=O)O)cc2cc(Cl)ccc21`: the solubility (kinetic) is more than 53.5 µg/mL.

Consider `O=C(NC1CCCCC1)C(=S)N1CCOCC1`, for which the solubility (kinetic) was more than 38.5 µg/mL.

For `CCOc1cccc(Nc2ccc([N+](=O)[O-])cn2)c1`, the solubility (kinetic) was found to be 2.4 µg/mL (≈ 9.26 µM).

`C=C1SC(Nc2c(C)cccc2C)=NC12CCCCC2` yielded a solubility (kinetic) of less than 0.3 µg/mL.

As for `Cc1cnc(C(=O)OCC(=O)NC(C)c2ccccc2)cn1` (stereo not drawn), the solubility (kinetic) was more than 44.9 µg/mL.

Molecule `O=C(NC(=S)N1CCCC1)c1ccccc1` displayed a solubility (kinetic) of more than 35.1 µg/mL.

Take `CC(C)(CNCc1ccccc1)NS(=O)(=O)c1ccccc1`: the solubility (kinetic) was more than 47.8 µg/mL.

`O=C(c1cc(-c2cccc(Cl)c2)on1)N1CCCC1` registered a kinetic solubility of 7.5 µg/mL (≈ 27.1 µM).

Regarding `COc1ccc(CC(=O)NC(CC(=O)O)c2cccc([N+](=O)[O-])c2)cc1` (stereo not drawn), the kinetic solubility is more than 53.8 µg/mL.

On to `CCn1cc(C(=O)NCCC(=O)NCCO)c(=O)c2cc3c(cc21)OCO3`, for which the kinetic solubility was more than 56.3 µg/mL.

The molecule `C/C(Cn1ncc(N2CCOCC2)c(Cl)c1=O)=N\O` gave a kinetic solubility of more than 43 µg/mL.

`O=C(Nc1nc2ccsc2c(=O)s1)c1ccc(F)cc1`: the solubility (kinetic) is less than 0.3 µg/mL.

`Cc1nc(C)c(-c2csc(Nc3ccc(O)cc3C)n2)s1` yielded a kinetic solubility of less than 0.2 µg/mL.

The molecule `C=CCn1c(O)c(CN2CCCCC2)c(C)c(C#N)c1=O` gave a solubility (kinetic) of more than 43.1 µg/mL.

`O=C(NCCc1ccc(Cl)cc1)Nc1ccc(Cl)cc1` had a kinetic solubility of less than 0.3 µg/mL.

Consider `NC(=O)CCS(=O)(=O)c1ccc(Cl)cc1`, for which the solubility (kinetic) was more than 37.2 µg/mL.

The molecule `COc1cc(C(=O)Nc2nnc(C)s2)c([N+](=O)[O-])cc1OC` returned a kinetic solubility of more than 48.6 µg/mL.

With `O=C(Nc1ccccc1)/C(=C/c1ccccc1)NC(=O)c1ccco1`, the solubility (kinetic) worked out at 1.2 µg/mL (≈ 3.61 µM).

In turn, `C=CCN(CC=C)C(=S)Nc1cc(Cl)ccc1OC` returned a kinetic solubility of more than 44.5 µg/mL.

Turning to `COc1ccc(C(C)(C)C)cc1NC(=O)CCNC(=O)c1ccco1`, the kinetic solubility is more than 51.7 µg/mL.

Turning to `Cl.O=C(Cc1ccccc1)NCCN1CCCC1`, the kinetic solubility is more than 40.3 µg/mL.

Take `CC(C)Oc1ccc(C(=O)Nc2ccc([N+](=O)[O-])cc2)cc1`: the solubility (kinetic) is less than 0.3 µg/mL.

In turn, `Cn1c(SCC(=O)N2CCCC2=O)nc2ccccc2c1=O` registered a kinetic solubility of 13.2 µg/mL (≈ 41.6 µM).

`Cn1c(-c2ccccc2)c(C=O)c2ccccc21` yielded a kinetic solubility of 19.5 µg/mL (≈ 82.9 µM).

For `NS(=O)(=O)c1ccc(NC(=O)COC(=O)CCCN2C(=O)c3cccc4cccc(c34)C2=O)cc1`, the kinetic solubility worked out at 8.8 µg/mL (≈ 17.8 µM).

Molecule `CCOC(=O)c1sc2nc(C)[nH]c(=O)c2c1C` displayed a kinetic solubility of 2.7 µg/mL (≈ 10.7 µM).

As for `Cc1ccccc1CN(C)C(=O)COC(=O)c1ccc2[nH]c(C)c(C)c2c1`, the kinetic solubility is 2.1 µg/mL (≈ 5.76 µM).

`O=C(Cn1c(=O)oc2ccccc21)Nc1cccc(Cl)c1` came in with a kinetic solubility of 2.1 µg/mL (≈ 6.94 µM).

In turn, `Cc1ccc(NC(=O)CCC(=O)NNC(=O)C(C)(C)C)c(C)c1` registered a solubility (kinetic) of more than 47.9 µg/mL.

In turn, `Cc1csc(N)n1` gave a kinetic solubility of 10.8 µg/mL (≈ 94.6 µM).

In turn, `Cc1ccc(S(=O)(=O)N2CCCCC2C(=O)Nc2ccc(N(C)C)cc2)cc1` (stereo not drawn) yielded a solubility (kinetic) of 5.7 µg/mL (≈ 14.2 µM).

Turning to `O=c1c2cc(F)ccc2[nH]c(=S)n1Cc1ccc(F)cc1`, the kinetic solubility worked out at 0.9 µg/mL (≈ 2.96 µM).

For the molecule `N#C/C(=C\Nc1ccccn1)S(=O)(=O)c1ccc(Cl)cc1`, the solubility (kinetic) worked out at 0.4 µg/mL (≈ 1.25 µM).

Regarding `CCCSc1nc2ccccc2n1CC(=O)O`, the kinetic solubility was more than 37.5 µg/mL.

In the case of `CN(CC(=O)N(C)CC(=O)Nc1c(Cl)cccc1Cl)Cc1ccccc1F`, the solubility (kinetic) is more than 61.8 µg/mL.

Consider `O=S(=O)(c1cc(F)ccc1F)N1CCC2(CC1)OCCO2`, for which the kinetic solubility was more than 47.9 µg/mL.

Take `Cc1cc(NC(=O)CSc2nccn2-c2cccc(F)c2)no1`: the kinetic solubility is more than 49.9 µg/mL.

In turn, `CC(C)CCN(C(=S)Nc1cccc(F)c1)C(C)c1cccs1` (stereo not drawn) came in with a kinetic solubility of 3.2 µg/mL (≈ 9.13 µM).

On to `CCC1CCCCN1CC(=O)c1c(C)[nH]c2ccc(OC)cc12` (stereo not drawn), for which the kinetic solubility was found to be 35 µg/mL (≈ 111 µM).

Regarding `O=C(Cc1cccc(C(F)(F)F)c1)N1CCCC1`, the kinetic solubility is more than 38.6 µg/mL.

`COc1ccc(OC)c(-c2cc(C(=O)N3CCOCC3)no2)c1` yielded a kinetic solubility of more than 47.7 µg/mL.

The molecule `CC(=O)c1ccc(N=C2NC(=O)C(CO)(CO)S2)cc1` registered a solubility (kinetic) of 43.2 µg/mL (≈ 147 µM).

Regarding `CC(=O)Nc1sc2c(c1C#N)CCC2`, the solubility (kinetic) is more than 30.9 µg/mL.

In the case of `COC(=O)c1cc(C(=O)NCC2CCCCC2)cc([N+](=O)[O-])c1`, the kinetic solubility is 33.3 µg/mL (≈ 104 µM).

In turn, `CC(C1CC1)N(Cc1ccccc1)C(=S)Nc1ccccc1Cl` (stereo not drawn) gave a kinetic solubility of 1.1 µg/mL (≈ 3.19 µM).

Regarding `CC(=O)c1c(C)[nH]c(C(=O)Nc2ccc(F)cc2F)c1C`, the solubility (kinetic) was determined as 20.6 µg/mL (≈ 70.5 µM).

The molecule `CCOC(=O)N1CCC(NS(=O)(=O)c2ccc(C)cc2)CC1` came in with a kinetic solubility of more than 49 µg/mL.

Molecule `COc1ccc2c3c([nH]c2c1)C(C)=NCC3` displayed a solubility (kinetic) of 30.6 µg/mL (≈ 143 µM).

As for `Cc1cccc(NC(=O)C(=O)NCc2ccc3c(c2)OCO3)c1C`, the solubility (kinetic) is 2 µg/mL (≈ 6.13 µM).

Regarding `CC(C)/C=C1\CCc2c([nH]c3ccccc23)C1=O`, the kinetic solubility is 1.5 µg/mL (≈ 6.27 µM).

The values are drawn from PubChem BioAssay AID1996.
